Test results as given in US20100249419A1, “UTILIZATION OF NOVEL COMPOUNDS WITH AMYLOID AFFINITY AND METHOD OF PRODUCING THE SAME” (NIHON MEDI-PHYSICS CO., LTD., priority 2007, published 2010).

Assay: Radioactive distribution ratio in each organ
Assay type: in vivo, SD rat
Method: In order to confirm that a compound of the present invention can be distributed in a target organ and has good clearance to the outside of the body, Compound 1 was used to measure a time-course change of radioactive accumulation to each organ in SD rat (8 weeks).
A solution of Compound 1 prepared in Example 3 in diethylether was diluted with a 10 mg/mL ascorbic acid-containing physiological saline solution (Example 10) and adjusted to 8-12 MBq/mL in radioactive concentration. 0.05 mL each of the prepared sample solution was administered under thiopental anesthesia into the tail vein of the above rat. The rats were sacrificed by bleeding from abdominal artery, and each organ shown in Table 11 was removed 5, 30, 60 and 180 minutes after the administration. Each removed organ was subjected to measurement of mass and radioactivity with the same method as in Example 10. Also, radioactivity of the whole body of the rat after removal of the organs (hereinafter referred to as rest of the whole body) was measured. Using these measurement results, radioactive distribution per unit weight of each organ (% ID/g) at the respective time points was calculated in accordance with the following formula (7).
Three animals were used for the experiment at the respective time points.
[formula] • R^T: Radioactivity of target organ (cpm) • R^S: Sum of radioactivity of all the organs (cpm) • R^R: Radioactivity of the rest of the whole body (cpm) • M^T: Mass of target organ (g)

Radioactive distribution per unit weight of organ, Average (Adrenal gland, 5 min. after administration): 2.471 % ID/g
Radioactive distribution per unit weight of organ, Average (Adrenal gland, 30 min. after administration): 0.199 % ID/g
Radioactive distribution per unit weight of organ, Average (Adrenal gland, 60 min. after administration): 0.068 % ID/g
Radioactive distribution per unit weight of organ, Average (Adrenal gland, 180 min. after administration): 0.052 % ID/g
Radioactive distribution per unit weight of organ, Average (Blood, 5 min. after administration): 0.420 % ID/g
Radioactive distribution per unit weight of organ, Average (Blood, 30 min. after administration): 0.129 % ID/g
Radioactive distribution per unit weight of organ, Average (Blood, 60 min. after administration): 0.101 % ID/g
Radioactive distribution per unit weight of organ, Average (Blood, 180 min. after administration): 0.068 % ID/g
Radioactive distribution per unit weight of organ, Average (Bone, 5 min. after administration): 0.282 % ID/g
Radioactive distribution per unit weight of organ, Average (Bone, 30 min. after administration): 0.066 % ID/g
Radioactive distribution per unit weight of organ, Average (Bone, 60 min. after administration): 0.047 % ID/g
Radioactive distribution per unit weight of organ, Average (Bone, 180 min. after administration): 0.032 % ID/g
Radioactive distribution per unit weight of organ, Average (Brain, 5 min. after administration): 0.755 % ID/g
Radioactive distribution per unit weight of organ, Average (Brain, 30 min. after administration): 0.049 % ID/g
Radioactive distribution per unit weight of organ, Average (Brain, 60 min. after administration): 0.014 % ID/g
Radioactive distribution per unit weight of organ, Average (Brain, 180 min. after administration): 0.005 % ID/g
Radioactive distribution per unit weight of organ, Average (Heart, 5 min. after administration): 0.582 % ID/g
Radioactive distribution per unit weight of organ, Average (Heart, 30 min. after administration): 0.081 % ID/g
Radioactive distribution per unit weight of organ, Average (Heart, 60 min. after administration): 0.049 % ID/g
Radioactive distribution per unit weight of organ, Average (Heart, 180 min. after administration): 0.029 % ID/g
Radioactive distribution per unit weight of organ, Average (Kidney, 5 min. after administration): 1.212 % ID/g
Radioactive distribution per unit weight of organ, Average (Kidney, 30 min. after administration): 0.432 % ID/g
Radioactive distribution per unit weight of organ, Average (Kidney, 60 min. after administration): 0.236 % ID/g
Radioactive distribution per unit weight of organ, Average (Kidney, 180 min. after administration): 0.070 % ID/g
Radioactive distribution per unit weight of organ, Average (Large intestine, 5 min. after administration): 0.139 % ID/g
Radioactive distribution per unit weight of organ, Average (Large intestine, 30 min. after administration): 0.054 % ID/g
Radioactive distribution per unit weight of organ, Average (Large intestine, 60 min. after administration): 0.069 % ID/g
Radioactive distribution per unit weight of organ, Average (Large intestine, 180 min. after administration): 6.876 % ID/g
Radioactive distribution per unit weight of organ, Average (Liver, 5 min. after administration): 1.865 % ID/g
Radioactive distribution per unit weight of organ, Average (Liver, 30 min. after administration): 0.293 % ID/g
Radioactive distribution per unit weight of organ, Average (Liver, 60 min. after administration): 0.113 % ID/g
Radioactive distribution per unit weight of organ, Average (Liver, 180 min. after administration): 0.051 % ID/g
Radioactive distribution per unit weight of organ, Average (Lung, 5 min. after administration): 0.661 % ID/g
Radioactive distribution per unit weight of organ, Average (Lung, 30 min. after administration): 0.117 % ID/g
Radioactive distribution per unit weight of organ, Average (Lung, 60 min. after administration): 0.076 % ID/g
Radioactive distribution per unit weight of organ, Average (Lung, 180 min. after administration): 0.053 % ID/g
Radioactive distribution per unit weight of organ, Average (Marrow, 5 min. after administration): 0.921 % ID/g
Radioactive distribution per unit weight of organ, Average (Marrow, 30 min. after administration): 0.087 % ID/g
Radioactive distribution per unit weight of organ, Average (Marrow, 60 min. after administration): 0.015 % ID/g
Radioactive distribution per unit weight of organ, Average (Marrow, 180 min. after administration): 0.000 % ID/g
Radioactive distribution per unit weight of organ, Average (Muscle, 5 min. after administration): 0.372 % ID/g
Radioactive distribution per unit weight of organ, Average (Muscle, 30 min. after administration): 0.042 % ID/g
Radioactive distribution per unit weight of organ, Average (Muscle, 60 min. after administration): 0.025 % ID/g
Radioactive distribution per unit weight of organ, Average (Muscle, 180 min. after administration): 0.015 % ID/g
Radioactive distribution per unit weight of organ, Average (Pancreas, 5 min. after administration): 0.778 % ID/g
Radioactive distribution per unit weight of organ, Average (Pancreas, 30 min. after administration): 0.097 % ID/g
Radioactive distribution per unit weight of organ, Average (Pancreas, 60 min. after administration): 0.051 % ID/g
Radioactive distribution per unit weight of organ, Average (Pancreas, 180 min. after administration): 0.033 % ID/g
Excretion / clearance to the outside of the body (SD rat, tail vein administration): biliary-excreted rapidly
Radioactive distribution per unit weight of organ, Average (Small intestine, 5 min. after administration): 1.299 % ID/g
Radioactive distribution per unit weight of organ, Average (Small intestine, 30 min. after administration): 6.720 % ID/g
Radioactive distribution per unit weight of organ, Average (Small intestine, 60 min. after administration): 7.515 % ID/g
Radioactive distribution per unit weight of organ, Average (Small intestine, 180 min. after administration): 0.882 % ID/g
Radioactive distribution per unit weight of organ, Average (Spleen, 5 min. after administration): 0.508 % ID/g
Radioactive distribution per unit weight of organ, Average (Spleen, 30 min. after administration): 0.072 % ID/g
Radioactive distribution per unit weight of organ, Average (Spleen, 60 min. after administration): 0.044 % ID/g
Radioactive distribution per unit weight of organ, Average (Spleen, 180 min. after administration): 0.035 % ID/g
Radioactive distribution per unit weight of organ, Average (Stomach, 5 min. after administration): 0.492 % ID/g
Radioactive distribution per unit weight of organ, Average (Stomach, 30 min. after administration): 1.202 % ID/g
Radioactive distribution per unit weight of organ, Average (Stomach, 60 min. after administration): 0.808 % ID/g
Radioactive distribution per unit weight of organ, Average (Stomach, 180 min. after administration): 0.982 % ID/g
Ratio (% ID/g at 5 minutes after the administration)/(% ID/g at 180 minutes after the administration) (bones): 9
Ratio (% ID/g at 5 minutes after the administration)/(% ID/g at 180 minutes after the administration) (brain): 145
Ratio (% ID/g at 5 minutes after the administration)/(% ID/g at 180 minutes after the administration) (heart): 20
Ratio (% ID/g at 5 minutes after the administration)/(% ID/g at 180 minutes after the administration) (lung): 13
Ratio (% ID/g at 5 minutes after the administration)/(% ID/g at 180 minutes after the administration) (pancreas): 24
Substance: 2-[4′-(2″-hydroxyethoxy)phenyl]-6-[^123I]iodoimidazo[1,2-a]pyridine [Compound 1]
